Laboratory results: patent publication US12448389B2, “BRM targeting compounds and associated methods of use” (Prelude Therapeutics Incorporated, priority 2020, dated 2025)

Tests used:
[1] = molecular target: T1, SMARCA2-HiBiT (Homo sapiens, UniProt P51531); experiment: SMARCA2 HiBiT degradation assay in HeLa cells; format: cell-based; conditions: 18 hours incubation; for DC50: read-out: HeLa_HiBit-SM2 DC50; for Dmax: HeLa, read-out: HeLa-HiBit-SM2 Dmax (%)
T1 construct: SMARCA2-HiBiT knock-in Hela monoclonal cell (CS302366); host or cells: HeLa monoclonal knock-in line (CRISPR HiBiT knock-in at the endogenous locus, heterozygous)
In short: (§1)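 HeLa monoclonal lines with heterozygous HiBiT knock-in were seeded at 2500 cells/well in EMEM with 10% FBS and treated with compound for 18 h at 37 °C. Remaining tagged protein was measured by Nano-Glo HiBiT lytic luminescence after 30–60 min at RT, and values came from curve fitting.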

[2] = molecular target: T2, SMARCA4-HiBiT (Homo sapiens, UniProt P51532); experiment: SMARCA4 HiBiT degradation assay in HeLa cells; format: cell-based; conditions: 18 hours incubation; for DC50: read-out: HeLa-HiBit-SM4 DC50; for Dmax: HeLa, read-out: HeLa-HiBit-SM4 Dmax (%)
T2 construct: SMARCA4-HiBiT knock-in Hela monoclonal cell (CS3023226); host or cells: HeLa monoclonal knock-in line (CRISPR HiBiT knock-in at the endogenous locus, heterozygous)
In short: as §1

T2 sequence (P51532 whole entry): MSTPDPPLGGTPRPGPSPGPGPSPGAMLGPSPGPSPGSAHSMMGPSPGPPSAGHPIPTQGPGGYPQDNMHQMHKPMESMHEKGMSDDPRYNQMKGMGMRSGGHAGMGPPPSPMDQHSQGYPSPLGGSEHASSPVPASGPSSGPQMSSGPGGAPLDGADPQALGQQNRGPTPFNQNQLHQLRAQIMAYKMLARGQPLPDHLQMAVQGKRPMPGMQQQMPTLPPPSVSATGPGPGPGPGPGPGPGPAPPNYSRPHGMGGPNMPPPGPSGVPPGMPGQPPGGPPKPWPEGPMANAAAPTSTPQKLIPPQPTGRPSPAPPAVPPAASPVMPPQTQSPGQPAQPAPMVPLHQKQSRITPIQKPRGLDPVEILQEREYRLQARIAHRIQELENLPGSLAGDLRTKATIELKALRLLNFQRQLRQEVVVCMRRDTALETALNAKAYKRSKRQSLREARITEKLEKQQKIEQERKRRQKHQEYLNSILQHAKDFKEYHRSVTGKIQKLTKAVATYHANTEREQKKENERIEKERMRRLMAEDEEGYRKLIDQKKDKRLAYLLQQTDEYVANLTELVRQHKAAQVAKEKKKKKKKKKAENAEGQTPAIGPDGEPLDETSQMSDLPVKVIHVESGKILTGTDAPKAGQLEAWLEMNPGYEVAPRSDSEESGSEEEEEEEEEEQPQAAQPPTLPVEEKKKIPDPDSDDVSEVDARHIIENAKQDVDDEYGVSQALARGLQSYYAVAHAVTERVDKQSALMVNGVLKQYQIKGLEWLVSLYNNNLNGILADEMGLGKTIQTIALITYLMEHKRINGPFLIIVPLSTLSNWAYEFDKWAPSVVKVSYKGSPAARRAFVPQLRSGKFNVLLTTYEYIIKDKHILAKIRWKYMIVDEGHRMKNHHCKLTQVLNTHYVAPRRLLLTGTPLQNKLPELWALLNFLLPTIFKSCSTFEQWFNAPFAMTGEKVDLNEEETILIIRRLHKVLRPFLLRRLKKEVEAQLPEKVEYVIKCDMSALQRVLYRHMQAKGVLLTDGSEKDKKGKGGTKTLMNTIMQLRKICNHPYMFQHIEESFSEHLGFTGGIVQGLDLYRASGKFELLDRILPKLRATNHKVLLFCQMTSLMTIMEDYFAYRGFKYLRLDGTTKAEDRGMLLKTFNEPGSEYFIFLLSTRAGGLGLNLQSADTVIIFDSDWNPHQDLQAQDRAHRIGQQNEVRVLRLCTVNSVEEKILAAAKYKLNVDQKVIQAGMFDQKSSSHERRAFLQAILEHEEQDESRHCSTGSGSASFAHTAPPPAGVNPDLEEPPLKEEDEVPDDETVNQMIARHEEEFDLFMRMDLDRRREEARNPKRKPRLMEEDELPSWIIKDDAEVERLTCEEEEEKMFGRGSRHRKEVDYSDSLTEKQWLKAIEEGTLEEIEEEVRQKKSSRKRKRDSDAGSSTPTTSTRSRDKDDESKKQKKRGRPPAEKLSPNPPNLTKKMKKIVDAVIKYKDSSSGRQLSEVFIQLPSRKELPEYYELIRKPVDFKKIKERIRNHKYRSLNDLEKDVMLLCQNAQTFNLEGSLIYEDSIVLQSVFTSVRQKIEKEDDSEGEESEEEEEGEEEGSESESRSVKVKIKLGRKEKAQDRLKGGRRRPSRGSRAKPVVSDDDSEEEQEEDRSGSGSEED
T1 sequence (P51531 whole entry): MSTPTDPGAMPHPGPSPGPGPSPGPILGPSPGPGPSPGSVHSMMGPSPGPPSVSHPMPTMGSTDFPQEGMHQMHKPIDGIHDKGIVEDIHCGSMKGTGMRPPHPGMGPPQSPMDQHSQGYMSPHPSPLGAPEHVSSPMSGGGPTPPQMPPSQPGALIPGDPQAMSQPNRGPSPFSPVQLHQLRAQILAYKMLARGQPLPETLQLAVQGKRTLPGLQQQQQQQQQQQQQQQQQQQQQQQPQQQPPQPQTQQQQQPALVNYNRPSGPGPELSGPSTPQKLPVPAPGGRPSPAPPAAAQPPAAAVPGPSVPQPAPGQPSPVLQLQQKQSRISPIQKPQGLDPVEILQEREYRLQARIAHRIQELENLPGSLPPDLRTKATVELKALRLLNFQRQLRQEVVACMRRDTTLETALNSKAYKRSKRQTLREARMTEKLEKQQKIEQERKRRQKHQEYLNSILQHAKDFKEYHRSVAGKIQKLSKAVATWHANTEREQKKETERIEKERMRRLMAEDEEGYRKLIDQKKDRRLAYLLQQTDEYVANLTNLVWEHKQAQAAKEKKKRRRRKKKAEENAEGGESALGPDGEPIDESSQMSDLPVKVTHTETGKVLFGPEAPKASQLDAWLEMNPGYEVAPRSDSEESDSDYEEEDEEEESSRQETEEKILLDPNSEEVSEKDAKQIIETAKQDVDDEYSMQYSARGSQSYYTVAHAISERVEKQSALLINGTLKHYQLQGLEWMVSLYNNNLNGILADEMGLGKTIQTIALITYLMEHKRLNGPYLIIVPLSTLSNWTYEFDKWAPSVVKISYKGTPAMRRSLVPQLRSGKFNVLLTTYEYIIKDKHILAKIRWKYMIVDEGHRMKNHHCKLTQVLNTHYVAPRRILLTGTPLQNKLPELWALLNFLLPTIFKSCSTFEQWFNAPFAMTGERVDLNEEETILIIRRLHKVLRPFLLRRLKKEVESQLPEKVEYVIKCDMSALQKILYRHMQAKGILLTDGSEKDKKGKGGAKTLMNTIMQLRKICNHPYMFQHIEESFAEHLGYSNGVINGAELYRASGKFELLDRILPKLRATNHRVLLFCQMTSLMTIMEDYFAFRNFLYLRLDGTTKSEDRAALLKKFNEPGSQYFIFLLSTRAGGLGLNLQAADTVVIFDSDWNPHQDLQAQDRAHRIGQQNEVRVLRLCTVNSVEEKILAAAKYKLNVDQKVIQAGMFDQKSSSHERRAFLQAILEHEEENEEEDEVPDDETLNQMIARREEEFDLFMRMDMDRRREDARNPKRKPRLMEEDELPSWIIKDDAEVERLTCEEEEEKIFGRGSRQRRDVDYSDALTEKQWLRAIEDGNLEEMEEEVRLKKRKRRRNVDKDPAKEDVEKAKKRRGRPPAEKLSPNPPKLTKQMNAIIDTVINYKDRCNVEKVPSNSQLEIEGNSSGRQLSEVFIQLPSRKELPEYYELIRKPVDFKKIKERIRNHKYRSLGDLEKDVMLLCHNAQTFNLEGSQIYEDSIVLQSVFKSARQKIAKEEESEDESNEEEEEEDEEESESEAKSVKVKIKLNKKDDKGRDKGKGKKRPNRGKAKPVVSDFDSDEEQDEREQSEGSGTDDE

With O=C1CCC(N2C(=O)c3ccc(N4CCC(CN5CCc6cnc(N7CCN8c9cc(-c%10ccccc%10O)nnc9NC[C@H]8C7)nc6C5)CC4)cc3C2=O)C(=O)N1 (stereo partly drawn) [Example 60, 2-(2,6-dioxopiperidin-3-yl)-5-(4-((2-((S)-2-(2-hydroxyphenyl)-5,6,6a,7,9,10-hexahydro-8H-pyrazino[1′,2′:4,5]pyrazino[2,3-c]pyridazin-8-yl)-5,8-dihydropyrido[3,4-d]pyrimidin-7(6H)-yl)methyl)piperidin-1-yl) isoindoline-1,3-dione] the DC50 [1] was < 10 nM, the Dmax [1] was ≤ 50% and the DC50 [2] was < 10 nM. The Dmax [2] was ≤ 50%.

For O=C1CCC(N2C(=O)c3cc(F)c(N4CCC(CN5CC6CCC(C5)C6CN5CCN6c7cc(-c8ccccc8O)nnc7NC[C@H]6C5)CC4)cc3C2=O)C(=O)N1 (stereo partly drawn) [Example 169, 2-(2,6-dioxopiperidin-3-yl)-5-fluoro-6-[4-[[8-[[(10S)-4-(2-hydroxyphenyl)-1,5,6,8,12-pentazatricyclo[8.4.0.02,7]tetradeca-2,4,6-trien-12-yl]methyl]-3-azabicyclo[3.2.1]octan-3-yl]methyl]piperidin-1-yl]isoindole-1,3-dione], the DC50 [1] was < 10 nM, the Dmax [1] was 75 to 85% and the DC50 [2] was 10 to 100 nM. For the same compound, the Dmax [2] was 75 to 85%.

With O=C1CCC(N2Cc3ccc(N4CCC(CN5Cc6cnc(N7CCN8c9cc(-c%10ccccc%10O)nnc9NC[C@H]8C7)nc6C5)CC4)cc3C2=O)C(=O)N1 (stereo partly drawn) [Example 61, 3-(6-(4-((2-((S)-2-(2-hydroxyphenyl)-5,6,6a,7,9,10-hexahydro-8H-pyrazino[1′,2′:4,5]pyrazino[2,3-c]pyridazin-8-yl)-5,7-dihydro-6H-pyrrolo[3,4-d]pyrimidin-6-yl)methyl)piperidin-1-yl)-1-oxoisoindolin-2-yl)piperidine-2,6-dione] the DC50 [1] was < 10 nM, the Dmax [1] was ≤ 50% and the DC50 [2] was < 10 nM. For the same compound, the Dmax [2] was ≤ 50%.

In the case of CC1CC(N2CCN3c4cc(-c5ccccc5O)nnc4NC[C@H]3C2)CCN1CCCC1CCN(c2cccc3c2C(=O)N(C2CCC(=O)NC2=O)C3=O)CC1 (stereo partly drawn) [Example 126, 2-(2,6-dioxopiperidin-3-yl)-4-(4-(3-(4-((S)-2-(2-hydroxyphenyl)-5,6,6a,7,9,10-hexahydro-8H-pyrazino[1′,2′:4,5]pyrazino[2,3-c]pyridazin-8-yl)-2-methylpiperidin-1-yl)propyl)piperidin-1-yl)isoindoline-1,3-dione], the DC50 [1] is reported as < 10 nM, the Dmax [1] is reported as > 85% and the DC50 [2] is reported as < 10 nM. The Dmax [2] was 75 to 85%.

In the case of CN(CCN1CCC(CN2CCN3c4cc(-c5ccccc5O)nnc4NC[C@H]3C2)CC1)c1ccc2c(c1)C(=O)N(C1CCC(=O)NC1=O)C2=O (stereo partly drawn) [Example 246, 2-(2,6-dioxopiperidin-3-yl)-5-((2-(4-(((S)-2-(2-hydroxyphenyl)-5,6,6a,7,9,10-hexahydro-8H-pyrazino[1′,2′:4,5]pyrazino[2,3-c]pyridazin-8-yl)methyl)piperidin-1-yl)ethyl)(methyl)amino)isoindoline-1,3-dione], the DC50 [1] is reported as < 10 nM, the Dmax [1] is reported as 75 to 85% and the DC50 [2] is reported as < 10 nM. It also gave a Dmax [2] of 50 to 75%.

O=C1CCC(N2C(=O)c3ccc(N4CCC(CN5CCC(F)(CN6CCN7c8cc(-c9ccccc9O)nnc8NC[C@H]7C6)CC5)CC4)cc3C2=O)C(=O)N1 (stereo partly drawn) [Example 175, 2-(2,6-dioxopiperidin-3-yl)-5-[4-[[4-fluoro-4-[[(10S)-4-(2-hydroxyphenyl)-1,5,6,8,12-pentazatricyclo[8.4.0.02,7]tetradeca-2,4,6-trien-12-yl]methyl]piperidin-1-yl]methyl]piperidin-1-yl]isoindole-1,3-dione] was tested, and the DC50 [1] was < 10 nM, the Dmax [1] was > 85% and the DC50 [2] was < 10 nM. For the same compound, the Dmax [2] was > 85%.
